Literature values, collected in patent US9201077B2 (Colorado State University Research Foundation, priority 2009, dated 2015).

Tested on: antibody used in progesterone assays
Details: conventional progesterone assay

Row | Compound | cross-reaction with the antibody used in progesterone assays
1 | C=CC[C@]1(O)CC[C@H]2[C@@H]3CCC4=CC(=O)CCC4=C3C=C[C@@]21C [altrenogest] | does not cross-react

Tested on: Anti-Progesterone (R4859) Antibody raised against 11α-hemisuccinate progesterone
Details: tested by UC Davis Endocrinology Laboratory

Row | Compound | % Cross Reaction
2 | CC(=O)[C@H]1CC[C@H]2[C@@H]3CC[C@H]4CC(=O)CC[C@]4(C)[C@H]3CC[C@]12C [5α-Pregnane-3,20-dione] | 12.19%
3 | CC(=O)[C@H]1CC[C@H]2[C@@H]3CCC4=CC(=O)CC[C@]4(C)[C@H]3[C@H](O)C[C@]12C [11α-OH-Progesterone] | 40.00%
4 | CC(=O)[C@@]1(O)CC[C@H]2[C@@H]3CCC4=CC(=O)CC[C@]4(C)[C@H]3CC[C@@]21C [17α-OH-Progesterone] | 0.38%
5 | C[C@H](O)[C@H]1CC[C@H]2[C@@H]3CCC4=CC(=O)CC[C@]4(C)[C@H]3CC[C@]12C [20α-OH-Progesterone] | 0.13%
6 | C[C@@H](O)[C@H]1CC[C@H]2[C@@H]3CCC4=CC(=O)CC[C@]4(C)[C@H]3CC[C@]12C [20β-OH-Progesterone] | 0.13%
7 | C[C@]12CCC(=O)C=C1CC[C@@H]1[C@@H]2[C@@H](O)C[C@@]2(C)[C@H]1CC[C@]2(O)C(=O)CO [Cortisol] | <0.04%
8 | C[C@]12CC[C@@H]3c4ccc(O)cc4CC[C@H]3[C@@H]1CC[C@@H]2O [Estradiol 17β] | <0.01%
9 | C[C@H](O)[C@H]1CC[C@H]2[C@@H]3CC[C@@H]4C[C@H](O)CC[C@]4(C)[C@H]3CC[C@]12C [Pregnanediol] | <0.01%
10 | CC(=O)[C@H]1CC[C@H]2[C@@H]3CC=C4C[C@@H](O)CC[C@]4(C)[C@H]3CC[C@]12C [Pregnenolone] | 0.12%
11 | CC(=O)[C@H]1CC[C@H]2[C@@H]3CCC4=CC(=O)CC[C@]4(C)[C@H]3CC[C@]12C [Progesterone] | 100.00%
12 | C[C@]12CC[C@H]3[C@@H](CCC4=CC(=O)CC[C@@]43C)[C@@H]1CC[C@@H]2O [Testosterone] | <0.01%
